Read-outs that look alike come from different tables or passages of the source.
What was measured:
[1] = phenylbenzoquinone writhing test, mouse; format: in vivo; settings: mouse, in vivo
Procedure: (§7) In addition to the hot plate method, the writhing test described by Sigmund et al., Soc. Exp. Biol. and Med. 95:729 (1957) has been applied in both rats and mice as further indication of analgesics. […] The stimulus of intraperitoneal injection of phenylbenzoquinone results in a writhing syndrome characterized by periodic twisting and stretching of the body with extension of the hind legs. […] The dose of compound protecting 50% of the animals is determined and expressed as the ED50. Ten animals are used at each dose level.

[2] = tested on: phenylbenzoquinone writhing; experiment: phenylbenzoquinone writhing test, mouse; format: in vivo
Procedure: as §7

[3] = phenylbenzoquinone writhing test, rat; format: in vivo; settings: rat, in vivo
Text: (§1) […]. […] Ten animals are used at each dose level.

[4] = tested on: phenylbenzoquinone writhing; experiment: phenylbenzoquinone writhing test, rat; format: in vivo
Text: as §1

heat stimulus [5] = experiment: D'Amour Smith Rat Tail Flick; format: in vivo; settings: Rattus norvegicus
Text: (§2) In the original method the time required for rats to flick their tails following application of a heat stimulus is taken as a measure of analgesic potency.

in vivo [6] = settings: for selectivity ratio / LD50: mouse; for LD50 at 48 h: read-out: LD50 (48 hr)
[7] = tested on: isolated guinea pig ileum (Acetylcholine); experiment: isolated guinea pig ileum screen, block of acetylcholine
[8] = tested on: isolated guinea pig ileum (Histamine); experiment: isolated guinea pig ileum screen, block of histamine (antihistaminic); settings: for Amount to produce a 50% block of Histamine: isolated guinea pig ileum, 37° C.; for antihistaminic activity compared with diphenhydramine: words
Text: Contractions were elicited by histamine phosphate. The concentration of compound required to block these contractions when added to the tissue bath prior to introduction of histamine is taken as evidence of antihistaminic action.

[9] = tested on: pinna reflex, corneal reflex; experiment: pinna / corneal reflex test (Witkin et al.), tranquilizer activity; format: in vivo, mouse; settings: for ratio of ED50 corneal/ED50 pinna: mouse, exceeding unity = tranquilizer type action; for tranquilizer classification from corneal/pinna ratio: words
Text: (§3) A tranquil sedation has been observed in mice, rats, cats and monkeys following administration of these compounds in doses exceeding those that are required for analgesia. In addition further indirect evidence for tranquilizer activity has been obtained by application of a method described by Witkin et al., J. Pharmacol, and Exp. Ther. 126:330 (1959)
This test is based upon observations that the pinna reflex of the mouse is blocked at relatively low doses of major tranquilizer drugs whereas very high doses are needed to block the corneal reflex. A ratio of ED50 corneal/ED50 pinna exceeding unity is taken as evidence of tranquilizer type action. […].

[10] = tested on: oxymorphone induced mydriasis; experiment: antagonism of oxymorphone induced mydriasis; format: in vivo, mice; settings: words
Procedure: (§4) The compounds of this invention were tested for their ability to antagonize narcotic analgesics by two different tests. […] Another test used for narcotic antagonist activity was published by Harris & Pearson. This test is modification of the D'Amour & Smith method.

morphine analgesia = experiment: antagonism of morphine analgesia (Harris & Pearson, modified D'Amour & Smith); format: in vivo; settings: rats; words
Procedure: as §4, §2

[11] = hypothermic effect, rectal temperature; format: in vivo; settings: mice; words
Procedure: Rectal temperatures were recorded periodically in mice following administration of 740-222 by oral route.

[12] = tested on: metrazol induced convulsions; experiment: anticonvulsant activity, pentylenetetrazol (Metrazol) convulsions; format: in vivo; settings: mice, words
intestinal motility = experiment: gastrointestinal motility suppression (Brittain & Collier, modified), charcoal; format: in vivo; settings: mice, words
NARCOTIC ANTAGONISM = experiment: narcotic antagonism (Table IV); format: in vivo; settings: I.P.
Procedure: as §4, §2

[13] = analgesic activity and general pharmacology, conventional testing methods; format: in vivo; settings: words
Text: Ten animals are used for each dose level.
Ten animals are used at each dose level.

in vivo [14] = settings: mouse
in vivo [15] = settings: ip
[16] = mouse hot plate test (Eddy and Leimbach, modified); settings: mouse, in vivo, LD50 /ED50 H.P.
heat stimulus [17] = experiment: mouse hot plate test (Eddy and Leimbach, modified); settings: for ED50: Mus musculus, read-out: Hot Plate ED50
acute toxicity, rat = settings: in vivo, sc; Rat s.c.; preliminary result
Procedure: (§5) Compounds were administered in 2% clearjel as a suspension except in
(§6) Toxicities have only been run with male animals to date.

acute toxicity, cat = settings: in vivo
Procedure: as §5, §6

in vivo [18] = experiment: in vivo; design: species or system mice, rats, cats and monkeys
Text: as §3

solubility = format: physicochemical; settings: words
[19] = po, Mouse p.o., read-out: LD50 /ED50 Writhing

SMILES | selectivity ratio ([1]; po) | selectivity ratio [1, 19] | ED50 ([2]; po, Mouse p.o.) [mg/kg] | Amount to produce a 50% block of Acetylcholine [7] [micrograms] | Amount to produce a 50% block of Histamine [8] [micrograms] | antihistaminic activity compared with diphenhydramine [8] | ratio of ED50 corneal/ED50 pinna [9] | tranquilizer classification from corneal/pinna ratio [9] | antagonism of oxymorphone induced mydriasis [10] | antagonism of morphine analgesia (morphine analgesia) | hypothermic effect [11] | suppression of intestinal motility (intestinal motility) | oral versus parenteral analgesic activity [13] | selectivity ratio (in vivo [14]; ip) | selectivity ratio (in vivo [14]; po) | selectivity ratio ([16]; ip, Mouse i.p.) | selectivity ratio ([16]; po, Mouse p.o.) | ED50 (heat stimulus [17]; ip) [mg/kg] | ED50 (heat stimulus [17]; po) [mg/kg] | ED50 (heat stimulus [17]; sc) [mg/kg] | other results
NC(=O)c1ccccc1NCCN1CCN(c2ccccc2)CC1 [Example I, 2-[2-(4-[1-Phenyl]piperazinyl)ethylamino]-benzamide] | 1.9 | > 340 | 2.9 | 126 | 0.8 | about half as active as the standard | approximately 0.5 | within the range of ratios expected with sedatives (0.3 to 0.7) | effective in antagonizing oxymorphone induced mydriasis | at lower dose levels antagonism of morphine analgesia was observed in rats | also effective in this respect | less important | more active by the parenteral routes than by the oral route | 1.2 | 1.9 | 670 | > 330 | 1.5 | 3 | 4.1 | selectivity ratio ([1]; sc): 6.3; selectivity ratio ([1]; sc, Mouse s.c., read-out: LD50 /ED50 Writhing): > 620; ED50 ([2]; sc, Mouse s.c.): 1.6 mg/kg; selectivity ratio [3]: 2; selectivity ratio ([3]; Rat Sub. cut, read-out: LD50 /ED50 Writhing): 400; ED50 ([4]; sc, Rat Sub. cut, read-out: Writhing ED50): 2.5 mg/kg; ED50 (heat stimulus [5]; sc, Sub. cut., read-out: Rat Tail Flick ED50): > 18 mg/kg; selectivity ratio (in vivo [6]): > 300; LD50 (in vivo [6]; read-out: acute toxicity (LD50)): 800 to 1000 mg/kg; antagonism of metrazol induced convulsions ([12]; subcutaneous): not effective by the subcutaneous route; NARCOTIC ANTAGONISM (NARCOTIC ANTAGONISM): Positive; analgesic activity compared with morphine, hot plate and writhing tests [13]: approximately equivalent to or slightly more active than morphine; selectivity ratio (in vivo [14]; sc): 2.4; LD50 (in vivo [15]): 800 mg/kg; NOAEL (in vivo [15]): 2 mg/kg; selectivity ratio ([16]; sc, Mouse s.c.): > 240
O=C1NC(c2ccccc2)N(CCN2CCN(c3ccccc3)CC2)c2ccccc21 (stereo not shown) [Example II, 1-[2-(1-Phenyl-4-piperazinyl)ethyl]-2-phenyl-1,2,3,4-tetrahydro-4-quinazolinone] | 9 | > 91 | 11 | 1000 | 0.5 | about the same activity as the standard antihistaminic diphenhydramine | greater than 10 | classified as possessing tranquilizer activity | slight antagonism of oxymorphone induced mydriasis in mice by the intraperiteneal route only | not effective by the subcutaneous route | effectively reduced body temperature in normal mice | effective in suppressing intestinal motility in mice | more active by the oral than the parenteral route | 3.4 | 5 | > 17 | > 50 | 52 | 20 | > 562 | activity relative to morphine, writhing test ([2]; mice): approximately one third; selectivity ratio ([3]; po): 7.1; selectivity ratio ([3]; po, Rat p.o., read-out: LD50 /ED50 Writhing): 71; ED50 ([4]; Rattus norvegicus, rats, oral, read-out: dose at which writhing syndrome is 50% blocked): 10 mg/kg; ED50 ([4]; po, Rat p.o., read-out: Writhing ED50): 14 mg/kg; ED50 (heat stimulus [5]; po, read-out: D'Amour Smith Rat Tail Flick ED50): > 100 mg/kg; LD50 at 48 h (in vivo [6]; ip, Mouse i.p.): > 2500 mg/kg; LD50 (in vivo [6]; mice, all routes tested, read-out: acute toxicity): > 1000 mg/kg; selectivity ratio (in vivo [6]; oral route, read-out: therapeutic index (lethal dose to effective dose)): > 300; LD50 at 48 h (in vivo [6]; po, Mouse p.o.): > 10000 mg/kg; LD50 at 48 h (in vivo [6]; sc, Mouse s.c.): > 1000 mg/kg; LD50 at 48 h (acute toxicity, rat): > 1000 mg/kg; LD50 at 48 h (acute toxicity, cat; ip, Cat i.p., preliminary result (740-222)): > 1000 mg/kg; LD50 at 48 h (acute toxicity, cat; po, Cat p.o., preliminary result): > 1000 mg/kg; antagonism of metrazol induced convulsions ([12]; oral): able to antagonize these metrazol induced convulsions in mice; suppression of intestinal motility (intestinal motility; listed as 740-222): reduces gut motility; selectivity ratio (in vivo [18]): ~10; solubility (solubility): low solubility; analgesic activity compared with codeine, hot plate (heat stimulus [17]; mice, oral, words): of the same order as codeine; analgesic activity compared with morphine, hot plate (heat stimulus [17]; mice, oral, words): slightly less than morphine
